The experiment concerns the target T1, glucocerebrosidase (Gcase) (Homo sapiens, UniProt P04062).
T1 construct: micellar solution containing 10 nM GCase and 100 nM saposin C
T1 sequence (P04062 40-536): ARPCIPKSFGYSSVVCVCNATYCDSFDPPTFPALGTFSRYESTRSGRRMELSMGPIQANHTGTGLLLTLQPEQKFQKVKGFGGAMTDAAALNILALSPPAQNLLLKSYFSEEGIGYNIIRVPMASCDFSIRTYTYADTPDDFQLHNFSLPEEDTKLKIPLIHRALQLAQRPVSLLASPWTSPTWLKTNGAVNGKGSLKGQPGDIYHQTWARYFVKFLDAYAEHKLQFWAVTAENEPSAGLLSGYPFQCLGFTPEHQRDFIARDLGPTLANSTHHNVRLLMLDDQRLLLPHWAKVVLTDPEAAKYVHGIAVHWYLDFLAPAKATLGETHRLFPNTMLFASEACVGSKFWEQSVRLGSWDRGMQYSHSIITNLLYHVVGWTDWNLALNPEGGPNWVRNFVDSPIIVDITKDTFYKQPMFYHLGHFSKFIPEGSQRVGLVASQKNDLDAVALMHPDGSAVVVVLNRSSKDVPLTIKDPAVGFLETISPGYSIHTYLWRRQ
Kind of experiment: Glucocerebrosidase (Gcase) activation assay with 4-methylumbelliferyl-beta-D-glucopyranoside substrate, saposin C and phosphatidylserine/triton micelles, fluorescence readout. The format is biochemical. The conditions noted are these: for Percent Gcase Activation, 0.1 μM Test Compound: test compound at 0.1 μM; for Percent Gcase Activation, 1 μM Test Compound: test compound at 1.0 μM. In short, it runs like this: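 Fluorescence (ex 365 nm, em 440 nm) read after glycine pH 12.5 stop of a 15 min room-temperature reaction. GCase 10 nM plus saposin C 100 nM in PS/triton micelles, pH 4.7, preincubated 30 min with compound; substrate solution held 2 mM 4-MU-beta-glucoside. Screened at 1.0 and 0.1 μM; 8-point, 3-fold curves from 5 μM top.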

With `COc1c(C#N)cccc1-c1cc(C)n2ncc(C(=O)NC(C3CC3)C(F)(F)F)c2n1` (centres unmarked) [III-141], the “Percent Gcase Activation, 0.1 μM Test Compound” value is “* (less than 10% Gcase activation)” and the “Percent Gcase Activation, 1 μM Test Compound” value is “+++ (Gcase activation greater than 60%)”.

Take `COc1c(C#N)cccc1-c1cc(C)n2ncc(C(=O)NC(C)C(F)(F)F)c2n1` (centres unmarked) [III-142]: the “Percent Gcase Activation, 0.1 μM Test Compound” value is recorded as “* (less than 10% Gcase activation)” and the “Percent Gcase Activation, 1 μM Test Compound” value was “+ (less than 30% Gcase activation)”.

As to `COc1c(C#N)cccc1-c1cc(C)n2ncc(C(=O)N[C@@H](C)C3CC3)c2n1` [III-143], the “Percent Gcase Activation, 0.1 μM Test Compound” value was “* (less than 10% Gcase activation)” and the “Percent Gcase Activation, 1 μM Test Compound” value is recorded as “+ (less than 30% Gcase activation)”.

In the case of `COc1c(C#N)cccc1-c1cc(C)n2ncc(C(=O)N[C@H](C)C3CC3)c2n1` [III-144], the “Percent Gcase Activation, 0.1 μM Test Compound” value is reported as “* (less than 10% Gcase activation)” and the “Percent Gcase Activation, 1 μM Test Compound” value was “+ (less than 30% Gcase activation)”.

With `COc1cc(-c2cc(C)n3ncc(C(=O)N[C@@H](C)C4CC4)c3n2)ccc1F` [III-145], the “Percent Gcase Activation, 0.1 μM Test Compound” value was “*** (greater than 20% Gcase activation)” and the “Percent Gcase Activation, 1 μM Test Compound” value is given as “+++ (Gcase activation greater than 60%)”.

Turning to `COc1cc(F)ccc1-c1cc(C)n2ncc(C(=O)N[C@@H](C)C3CC3)c2n1` [III-146], the “Percent Gcase Activation, 0.1 μM Test Compound” value is recorded as “*** (greater than 20% Gcase activation)” and the “Percent Gcase Activation, 1 μM Test Compound” value is given as “+++ (Gcase activation greater than 60%)”.

`COc1cc(-c2cc(C)n3ncc(C(=O)NC(C4CC4)C(F)(F)F)c3n2)ccc1F` (centres unmarked) [III-147]: the “Percent Gcase Activation, 0.1 μM Test Compound” value is “*** (greater than 20% Gcase activation)” and the “Percent Gcase Activation, 1 μM Test Compound” value is on record as “+++ (Gcase activation greater than 60%)”.

`COc1cc(-c2cc(C)n3ncc(C(=O)NC(C)C(F)(F)F)c3n2)ccc1F` (centres unmarked) [III-148]: the “Percent Gcase Activation, 0.1 μM Test Compound” value is “** (Gcase activation in the range of 10% up to 20%)” and the “Percent Gcase Activation, 1 μM Test Compound” value was “+++ (Gcase activation greater than 60%)”.

In the case of `COc1cc(F)ccc1-c1cc(C)n2ncc(C(=O)NC(C3CC3)C(F)(F)F)c2n1` (centres unmarked) [III-149], the “Percent Gcase Activation, 0.1 μM Test Compound” value is recorded as “*** (greater than 20% Gcase activation)” and the “Percent Gcase Activation, 1 μM Test Compound” value is recorded as “+++ (Gcase activation greater than 60%)”.

Turning to `COc1cc(F)ccc1-c1cc(C)n2ncc(C(=O)NC(C)C(F)(F)F)c2n1` (centres unmarked) [III-150], the “Percent Gcase Activation, 0.1 μM Test Compound” value is given as “*** (greater than 20% Gcase activation)” and the “Percent Gcase Activation, 1 μM Test Compound” value is listed as “+++ (Gcase activation greater than 60%)”.

Take `Cc1cc(-c2ccc(F)cc2C#N)nc2c(C(=O)NC(C3CC3)C(F)(F)F)cnn12` (centres unmarked) [III-151]: the “Percent Gcase Activation, 0.1 μM Test Compound” value was “*** (greater than 20% Gcase activation)” and the “Percent Gcase Activation, 1 μM Test Compound” value was “+++ (Gcase activation greater than 60%)”.

Regarding `Cc1cc(-c2ccc(F)cc2C#N)nc2c(C(=O)N[C@@H](C)C3CC3)cnn12` [III-152], the “Percent Gcase Activation, 0.1 μM Test Compound” value is “*** (greater than 20% Gcase activation)” and the “Percent Gcase Activation, 1 μM Test Compound” value is “+++ (Gcase activation greater than 60%)”.

As for `Cc1cc(-c2ccc(F)cc2C#N)nc2c(C(=O)N[C@H](C)C3CC3)cnn12` [III-153], the “Percent Gcase Activation, 0.1 μM Test Compound” value is “** (Gcase activation in the range of 10% up to 20%)” and the “Percent Gcase Activation, 1 μM Test Compound” value is given as “+++ (Gcase activation greater than 60%)”.

As to `Cc1cc(-c2ccc(F)cc2C#N)nc2c(C(=O)NC(C)C(F)(F)F)cnn12` (centres unmarked) [III-154], the “Percent Gcase Activation, 0.1 μM Test Compound” value is “*** (greater than 20% Gcase activation)” and the “Percent Gcase Activation, 1 μM Test Compound” value is “+++ (Gcase activation greater than 60%)”.

Take `Cc1cc(-c2ccc(F)cc2C#N)nc2c(C(=O)N[C@H](C)C(F)(F)F)cnn12` [III-155]: the “Percent Gcase Activation, 0.1 μM Test Compound” value is reported as “* (less than 10% Gcase activation)” and the “Percent Gcase Activation, 1 μM Test Compound” value is given as “++ (Gcase activation in the range of 30% up to 60%)”.

`Cc1cc(-c2ccc(F)cc2C#N)nc2c(C(=O)N[C@@H](C)C(F)(F)F)cnn12` [III-156]: the “Percent Gcase Activation, 0.1 μM Test Compound” value is recorded as “*** (greater than 20% Gcase activation)” and the “Percent Gcase Activation, 1 μM Test Compound” value was “+++ (Gcase activation greater than 60%)”.

As to `Cc1cc(-c2ccc(F)c(C#N)c2)nc2c(C(=O)N[C@@H](C)C3CC3)cnn12` [III-157], the “Percent Gcase Activation, 0.1 μM Test Compound” value is recorded as “*** (greater than 20% Gcase activation)” and the “Percent Gcase Activation, 1 μM Test Compound” value is “+++ (Gcase activation greater than 60%)”.

As to `Cc1cc(-c2ccc(F)c(C#N)c2)nc2c(C(=O)NC(C3CC3)C(F)(F)F)cnn12` (centres unmarked) [III-158], the “Percent Gcase Activation, 0.1 μM Test Compound” value is given as “*** (greater than 20% Gcase activation)” and the “Percent Gcase Activation, 1 μM Test Compound” value is recorded as “+++ (Gcase activation greater than 60%)”.

In the case of `Cc1cc(-c2ccc(F)c(C#N)c2)nc2c(C(=O)NC(C)C(F)(F)F)cnn12` (centres unmarked) [III-159], the “Percent Gcase Activation, 0.1 μM Test Compound” value is “** (Gcase activation in the range of 10% up to 20%)” and the “Percent Gcase Activation, 1 μM Test Compound” value was “+++ (Gcase activation greater than 60%)”.

As to `Cc1cc(-c2ccc(F)c(C(N)=O)c2)nc2c(C(=O)N[C@@H](C)C3CC3)cnn12` [III-160], the “Percent Gcase Activation, 0.1 μM Test Compound” value is on record as “** (Gcase activation in the range of 10% up to 20%)” and the “Percent Gcase Activation, 1 μM Test Compound” value was “+++ (Gcase activation greater than 60%)”.

As to `Cc1cc(-c2cccc(C(N)=O)n2)nc2c(C(=O)NC(C3CC3)C(F)(F)F)cnn12` (centres unmarked) [III-161], the “Percent Gcase Activation, 0.1 μM Test Compound” value is “* (less than 10% Gcase activation)” and the “Percent Gcase Activation, 1 μM Test Compound” value is listed as “+++ (Gcase activation greater than 60%)”.

`Cc1cc(-c2ccc(F)c(C(N)=O)c2)nc2c(C(=O)NC(C3CC3)C(F)(F)F)cnn12` (centres unmarked) [III-162]: the “Percent Gcase Activation, 0.1 μM Test Compound” value was “*** (greater than 20% Gcase activation)” and the “Percent Gcase Activation, 1 μM Test Compound” value was “+++ (Gcase activation greater than 60%)”.

Consider `Cc1cc(-c2ccc(F)cc2)nc2c(C(=O)NC(C3CC3)C(F)(F)F)cnn12` (centres unmarked) [III-163], for which the “Percent Gcase Activation, 0.1 μM Test Compound” value is reported as “*** (greater than 20% Gcase activation)” and the “Percent Gcase Activation, 1 μM Test Compound” value is “+++ (Gcase activation greater than 60%)”.

Take `Cc1cc(-c2ccc(F)cc2)nc2c(C(=O)NC(C)C(F)(F)F)cnn12` (centres unmarked) [III-164]: the “Percent Gcase Activation, 0.1 μM Test Compound” value is reported as “*** (greater than 20% Gcase activation)” and the “Percent Gcase Activation, 1 μM Test Compound” value was “+++ (Gcase activation greater than 60%)”.

With `Cc1cc(NC2CC2)nc2c(C(=O)NC(C)C(F)(F)F)cnn12` (centres unmarked) [III-165], the “Percent Gcase Activation, 0.1 μM Test Compound” value is on record as “** (Gcase activation in the range of 10% up to 20%)” and the “Percent Gcase Activation, 1 μM Test Compound” value is reported as “+++ (Gcase activation greater than 60%)”.

Regarding `Cc1cc(NC2CC2)nc2c(C(=O)N[C@@H](C)C3CC3)cnn12` [III-166], the “Percent Gcase Activation, 0.1 μM Test Compound” value is listed as “** (Gcase activation in the range of 10% up to 20%)” and the “Percent Gcase Activation, 1 μM Test Compound” value is reported as “+++ (Gcase activation greater than 60%)”.

In the case of `Cc1cc(-c2ccc3ocnc3c2)nc2c(C(=O)N[C@H](C)C(F)(F)F)cnn12` [III-167], the “Percent Gcase Activation, 0.1 μM Test Compound” value is “*** (greater than 20% Gcase activation)” and the “Percent Gcase Activation, 1 μM Test Compound” value is recorded as “+++ (Gcase activation greater than 60%)”.

Consider `Cc1cc(-c2ccc3ocnc3c2)nc2c(C(=O)N[C@@H](C)C(F)(F)F)cnn12` [III-168], for which the “Percent Gcase Activation, 0.1 μM Test Compound” value was “*** (greater than 20% Gcase activation)” and the “Percent Gcase Activation, 1 μM Test Compound” value was “+++ (Gcase activation greater than 60%)”.

In the case of `Cc1cc(-c2ccc3ocnc3c2)nc2c(C(=O)NC(C)C(F)(F)F)cnn12` (centres unmarked) [III-169], the “Percent Gcase Activation, 0.1 μM Test Compound” value is “*** (greater than 20% Gcase activation)” and the “Percent Gcase Activation, 1 μM Test Compound” value was “+++ (Gcase activation greater than 60%)”.

For the compound `Cc1cc(-n2ccc(Cl)n2)nc2c(C(=O)NC(C)C(F)(F)F)cnn12` (centres unmarked) [III-170], the “Percent Gcase Activation, 0.1 μM Test Compound” value was “** (Gcase activation in the range of 10% up to 20%)” and the “Percent Gcase Activation, 1 μM Test Compound” value was “++ (Gcase activation in the range of 30% up to 60%)”.

Turning to `Cc1cc(-n2ccc(F)n2)nc2c(C(=O)NC(C3CC3)C(F)(F)F)cnn12` (centres unmarked) [III-172], the “Percent Gcase Activation, 0.1 μM Test Compound” value was “*** (greater than 20% Gcase activation)” and the “Percent Gcase Activation, 1 μM Test Compound” value is “+++ (Gcase activation greater than 60%)”.

Take `Cc1cc(-n2ccc(F)n2)nc2c(C(=O)N[C@H](C3CC3)C(F)(F)F)cnn12` [III-173]: the “Percent Gcase Activation, 0.1 μM Test Compound” value was “*** (greater than 20% Gcase activation)” and the “Percent Gcase Activation, 1 μM Test Compound” value is given as “+++ (Gcase activation greater than 60%)”.

As for `Cc1cc(-n2ccc(F)n2)nc2c(C(=O)N[C@@H](C3CC3)C(F)(F)F)cnn12` [III-174], the “Percent Gcase Activation, 0.1 μM Test Compound” value is “*** (greater than 20% Gcase activation)” and the “Percent Gcase Activation, 1 μM Test Compound” value is recorded as “+++ (Gcase activation greater than 60%)”.

In the case of `Cc1cc(-c2cccc(-c3ncccn3)n2)nc2c(C(=O)NC(C3CC3)C(F)(F)F)cnn12` (centres unmarked) [III-175], the “Percent Gcase Activation, 0.1 μM Test Compound” value is given as “* (less than 10% Gcase activation)” and the “Percent Gcase Activation, 1 μM Test Compound” value is recorded as “+ (less than 30% Gcase activation)”.

The values above are taken from patent US10934298B2, “Substituted pyrazolo[1,5-a]pyrimidines for the treatment of medical disorders” (BIAL—BioTech Investments, Inc., priority 2016, dated 2021).
